Test results taken from patent US20210138025A1, “CATIONIC PEPTIDES WITH IMMUNOMODULATORY AND/OR ANTI-BIOFILM ACTIVITIES” (priority 2018, published 2021).
Non-standard residues stand in square brackets, D forms with d. Residues, ends and D or L forms follow the SMILES beside them.

What was measured:
Type in all cases: cell-based
monocytes [1] = assay: Cytokine production in unstimulated monocytes, bovine (Table 22); details: background subtracted
Experimental: (§1) A subset of peptides was tested for stimulation of cytokine production in monocytes (Table 22). For the tested cytokines, the peptides tended to show anti-inflammatory activity rather than […] activity.

monocytes [2] = assay: Cytokine production in unstimulated monocytes, canine (Table 22); details: background subtracted
Experimental: as §1

LPS stimulated monocytes = assay: Anti-inflammatory activity in LPS stimulated monocytes, bovine (Table 23); details: 32 μg/ml peptide, negative = increase
[3] = system: ConA stimulated monocytes; assay: Anti-inflammatory activity in ConA stimulated monocytes, canine (Table 23); details: 32 μg/ml peptide, negative = increase
T-lymphocytes [4] = assay: Cytokine production in T-lymphocytes, bovine (Table 24); details: no additional stimulant, background (NONE) subtracted
T-lymphocytes [5] = assay: Cytokine production in T-lymphocytes, canine (Table 24); details: no additional stimulant, background (NONE) subtracted
T-lymphocytes [6] = assay: Anti-inflammatory activity towards stimulated T-lymphocytes, bovine (Table 25); details: Bovine T-cells, 32 μg/ml of peptide
T-lymphocytes [7] = assay: Anti-inflammatory activity towards stimulated T-lymphocytes, canine (Table 25); details: Canine T-cells, 32 μg/ml of peptide

## CC[C@@H](C)[C@@H](NC(=O)[C@@H](C)NC(=O)[C@@H](CCCNC(=N)N)NC(=O)[C@@H](Cc1c[nH]c2ccccc12)NC(=O)[C@@H](CCC(N)=O)NC(=O)[C@H](N)C(C)C)C(=O)N[C@H](CCCNC(=N)N)C(=O)N[C@@H](C(=O)N[C@H](CCCNC(=N)N)C(=O)N[C@@H](C(=O)N[C@@H](C(=O)N[C@H](CCCNC(=N)N)C(N)=O)[C@H](C)CC)C(C)C)C(C)C [DJK5, VQWRAIRVRVIR] (H-[dV][dQ][dW][dR][dA][dI][dR][dV][dR][dV][dI][dR]-NH2; N-terminus and C-terminus assumed)
Monocytes [1]
  Concentration of Monocyte cytokine TNFα in absence of additional stimulant: -218 pg/mL
Monocytes [2]
  Concentration of Monocyte cytokine IFNγ in absence of additional stimulant: -310 pg/mL
  Concentration of Monocyte cytokine IL-2 in absence of additional stimulant: 86 pg/mL
  Concentration of Monocyte cytokine IL-4 in absence of additional stimulant: -241 pg/mL
  Concentration of Monocyte cytokine IL-6 in absence of additional stimulant: -113 pg/mL
  Concentration of Monocyte cytokine IL-13 in absence of additional stimulant: -25 pg/mL
  Concentration of Monocyte cytokine TNFα in absence of additional stimulant: -73 pg/mL
LPS stimulated monocytes
  % Monocyte cytokine decrease in presence of LPS/ConA, IFNγ: 31.6%
  % Monocyte cytokine decrease in presence of LPS/ConA, IL-2: 34.0%
  % Monocyte cytokine decrease in presence of LPS/ConA, IL-4: 3.9%
  % Monocyte cytokine decrease in presence of LPS/ConA, IL-6: 21.0%
  % Monocyte cytokine decrease in presence of LPS/ConA, IL-13: 65.5%
  % Monocyte cytokine decrease in presence of LPS/ConA, TNFα: 68.1%
[3]
  % Monocyte cytokine decrease in presence of LPS/ConA, IFNγ: 13.7%
  % Monocyte cytokine decrease in presence of LPS/ConA, IL-2: 38.9%
  % Monocyte cytokine decrease in presence of LPS/ConA, IL-4: 32.6%
  % Monocyte cytokine decrease in presence of LPS/ConA, IL-6: 39.9%
  % Monocyte cytokine decrease in presence of LPS/ConA, IL-13: 36.5%
  % Monocyte cytokine decrease in presence of LPS/ConA, TNFα: 44.3%
T-lymphocytes [4]
  Concentration of T-cell cytokines in the absence of additional stimulant: IFNγ: -12 pg/mL
  Concentration of T-cell cytokines in the absence of additional stimulant: IL-2: -66 pg/mL
  Concentration of T-cell cytokines in the absence of additional stimulant: IL-4: -73 pg/mL
  Concentration of T-cell cytokines in the absence of additional stimulant: IL-6: -92 pg/mL
  Concentration of T-cell cytokines in the absence of additional stimulant: IL-13: 178 pg/mL
  Concentration of T-cell cytokines in the absence of additional stimulant: TNFα: 113 pg/mL
T-lymphocytes [5]
  Concentration of T-cell cytokines in the absence of additional stimulant: IFNγ: 11 pg/mL
  Concentration of T-cell cytokines in the absence of additional stimulant: IL-2: 13 pg/mL
  Concentration of T-cell cytokines in the absence of additional stimulant: IL-4: 71 pg/mL
  Concentration of T-cell cytokines in the absence of additional stimulant: IL-6: 149 pg/mL
  Concentration of T-cell cytokines in the absence of additional stimulant: IL-13: -100 pg/mL
  Concentration of T-cell cytokines in the absence of additional stimulant: TNFα: -46 pg/mL
T-lymphocytes [6]
  % Cytokine decrease in the presence of LPS/ConA: IFNγ: 34.9%
  % Cytokine decrease in the presence of LPS/ConA: IL-2: 80.7%
  % Cytokine decrease in the presence of LPS/ConA: IL-4: 37.7%
  % Cytokine decrease in the presence of LPS/ConA: IL-6: −16.4%
  % Cytokine decrease in the presence of LPS/ConA: IL-13: 85.3%
  % Cytokine decrease in the presence of LPS/ConA: TNFα: 38.2%
T-lymphocytes [7]
  % Cytokine decrease in the presence of LPS/ConA: IFNγ: 60.2%
  % Cytokine decrease in the presence of LPS/ConA: IL-2: 62.3%
  % Cytokine decrease in the presence of LPS/ConA: IL-4: 65.5%
  % Cytokine decrease in the presence of LPS/ConA: IL-6: 24.8%
  % Cytokine decrease in the presence of LPS/ConA: IL-13: 48.2%
  % Cytokine decrease in the presence of LPS/ConA: TNFα: 7.1%
